26 compounds from patent US9409892B2, “4-hydroxy-isoquinoline compounds as HIF hydroxylase inhibitors” (FIBROGEN, INC., priority 2012, dated 2016) can be followed below.

The target of assay [1] is PHD1 (EGLN2) (Homo sapiens (Human), UniProt Q96KS0). Kind of assay: HIF-PH assay (14CO2 capture), PHD1 enzyme inhibition. The format is biochemical. Particulars: Table 1; for IC50: individual measurement, read-out: IC50 (μM) PHD1; for PHD2/PHD1: ratio of the IC50 of the compound for each enzyme.
The target of assay [2] is PHD2 (EGLN1) (Homo sapiens (Human), UniProt Q9GZT9). Nature of the assay: HIF-PH assay (14CO2 capture), PHD2 enzyme inhibition. It is filed as biochemical. To be noted: Table 1; individual measurement; read-out: IC50 (μM) PHD2.
Sequence of PHD2 (EGLN1) (Q9GZT9 whole entry): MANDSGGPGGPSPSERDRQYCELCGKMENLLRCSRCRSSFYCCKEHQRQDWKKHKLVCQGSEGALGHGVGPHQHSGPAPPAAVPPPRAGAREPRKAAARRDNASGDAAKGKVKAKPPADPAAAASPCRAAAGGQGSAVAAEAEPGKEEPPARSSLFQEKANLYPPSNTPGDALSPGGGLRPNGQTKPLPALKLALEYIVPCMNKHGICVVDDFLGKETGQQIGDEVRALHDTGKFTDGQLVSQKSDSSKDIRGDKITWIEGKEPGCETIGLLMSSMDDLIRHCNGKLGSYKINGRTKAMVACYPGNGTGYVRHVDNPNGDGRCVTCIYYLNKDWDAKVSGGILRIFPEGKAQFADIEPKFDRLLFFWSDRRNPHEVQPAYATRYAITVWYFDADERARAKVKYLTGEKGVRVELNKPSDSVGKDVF

Sequence of PHD1 (EGLN2) (Q96KS0 whole entry): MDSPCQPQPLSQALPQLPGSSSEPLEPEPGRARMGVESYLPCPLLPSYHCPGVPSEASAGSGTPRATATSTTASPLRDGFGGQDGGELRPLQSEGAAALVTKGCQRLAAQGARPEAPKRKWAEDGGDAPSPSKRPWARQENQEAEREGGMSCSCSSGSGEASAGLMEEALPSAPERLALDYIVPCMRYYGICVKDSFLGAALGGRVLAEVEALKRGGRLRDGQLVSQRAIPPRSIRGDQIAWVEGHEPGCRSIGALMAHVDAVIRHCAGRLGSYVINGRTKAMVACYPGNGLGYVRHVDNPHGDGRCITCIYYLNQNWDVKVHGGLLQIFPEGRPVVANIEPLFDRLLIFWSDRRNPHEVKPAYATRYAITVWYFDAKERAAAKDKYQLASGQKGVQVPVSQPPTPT

As to `CC(C)(CC(=O)O)NC(=O)c1nc(C#N)c2cc(OCc3ccccc3)ccc2c1O` [Compound 152, 3-[(7-Benzyloxy-1-cyano-4-hydroxy-isoquinoline-3-carbonyl)-amino]-3-methyl-butyric acid], in assay [1], the IC50 is 4.35 µM and the PHD2/PHD1 was determined as 13. For the same compound, the IC50 in assay [2] was determined as 55.1 µM.
For `CC(C)(CNC(=O)c1nc(C#N)c2cc(OCc3ccccc3)ccc2c1O)C(=O)O` [Compound 153, 3-[(7-Benzyloxy-1-cyano-4-hydroxy-isoquinoline-3-carbonyl)-amino]-2,2-dimethyl-propionic acid], the IC50 amounted to 2.58 µM in assay [1] and 30.5 µM in assay [2]. Further, the PHD2/PHD1 in assay [1] is reported as 12.
Take `N#Cc1nc(C(=O)NCC2(C(=O)O)CCC2)c(O)c2ccc(Sc3ccccc3)cc12` [Compound 154, 1-{[(1-Cyano-4-hydroxy-7-phenylsulfanyl-isoquinoline-3-carbonyl)-amino]-methyl}-cyclobutanecarboxylic acid]: the IC50 in assay [1] was found to be 0.11 µM; in assay [2], 1.9 µM. Also, the PHD2/PHD1 in assay [1] came to 18.
For `Cc1ccccc1Oc1ccc2c(C#N)nc(C(=O)NCC(C)(C)C(=O)O)c(O)c2c1` [Compound 155, 3-[(1-Cyano-4-hydroxy-6-o-tolyloxy-isoquinoline-3-carbonyl)-amino]-2,2-dimethyl-propionic acid], the IC50 came out at 5.25 µM in assay [1] and 42.1 µM in assay [2]. In assay [1], the PHD2/PHD1 came out at 8.
With `CC(C)(CNC(=O)c1nc(C#N)c2cc(OC3CCCCC3)ccc2c1O)C(=O)O` [Compound 156, 3-[(1-Cyano-7-cyclohexyloxy-4-hydroxy-isoquinoline-3-carbonyl)-amino]-2,2-dimethyl-propionic acid], in assay [1], the IC50 was 1.49 µM and the PHD2/PHD1 stood at 16. Moreover, the IC50 in assay [2] came to 23.5 µM.
For `CC(C)(CNC(=O)c1c(O)c2ccc(Oc3ccccc3)cc2c(C#N)[n+]1[O-])C(=O)O` [Compound 157, 3-(2-Carboxy-2-methylpropylcarbamoyl)-1-cyano-4-hydroxy-7-phenoxyisoquinoline 2-oxide], the concentration for half-maximal inhibition (IC50) in assay [1] is 13.6 µM; in assay [2], 200 µM. Also, the PHD2/PHD1 in assay [1] is 15.
For the compound `N#Cc1c2cc(Oc3ccccc3)ccc2c(O)c(C(=O)NCCCC(=O)O)[n+]1[O-]` [Compound 158, 3-(3-Carboxypropylcarbamoyl)-1-cyano-4-hydroxy-7-phenoxyisoquinoline 2-oxide], in assay [1], the IC50 came out at 1.66 µM and the PHD2/PHD1 was determined as 13. For the same compound, the IC50 in assay [2] came out at 21 µM.
`N#Cc1nc(C(=O)NCC2(C(=O)O)CCC2)c(O)c2ccc(OC3CCCCC3)cc12` [Compound 159, 1-{[(1-Cyano-7-cyclohexyloxy-4-hydroxy-isoquinoline-3-carbonyl)-amino]-methyl}-cyclobutanecarboxylic acid]: in assay [1], the IC50 amounted to 0.91 µM and the PHD2/PHD1 amounted to 9. Moreover, the IC50 in assay [2] was 7.9 µM.
With `CC(C)(CNC(=O)c1nc(C#N)c2cc(S(=O)(=O)C3CCCCC3)ccc2c1O)C(=O)O` [Compound 160, 3-[(1-Cyano-7-cyclohexanesulfonyl-4-hydroxy-isoquinoline-3-carbonyl)-amino]-2,2-dimethyl-propionic acid], the IC50 worked out at 17.4 µM in assay [1] and 200 µM in assay [2]. For the same compound, the PHD2/PHD1 in assay [1] stood at 12.
With `N#Cc1nc(C(=O)NCC2(C(=O)O)CCC2)c(O)c2ccc(S(=O)(=O)C3CCCCC3)cc12` [Compound 161, 1-{[(1-Cyano-7-cyclohexanesulfonyl-4-hydroxy-isoquinoline-3-carbonyl)-amino]-methyl}-cyclobutanecarboxylic acid], in assay [1], the IC50 turned out to be 19.8 µM and the PHD2/PHD1 is listed as 10. The IC50 in assay [2] was found to be 200 µM.
As for `CC(C)(CNC(=O)c1nc(C#N)c2cc(NC(=O)NCc3ccccc3)ccc2c1O)C(=O)O` [Compound 162, 3-{[7-(3-Benzyl-ureido)-1-cyano-4-hydroxy-isoquinoline-3-carbonyl]-amino}-2,2-dimethyl-propionic acid], in assay [1], the IC50 turned out to be 2.35 µM and the PHD2/PHD1 came to 10. Further, the IC50 in assay [2] was 24.1 µM.
In the case of `N#Cc1nc(C(=O)NCCC[C@H](N)C(=O)O)c(O)c2ccc(Oc3ccccc3)cc12.O=C(O)C(F)(F)F` [Compound 163, (S)-2-[Amino-5-(1-cyano-4-hydroxy-7-phenoxy-isoquinoline-3-carbonyl)-amino]-pentanoic acid 2,2,2-trifluoroacetic acid (1:1)], the IC50 in assay [1] is 43.6 µM; in assay [2], > 200 µM. In addition, in assay [1], the PHD2/PHD1 came out at 5.
For `CC(C)(CNC(=O)c1nc(C#N)c2cc(Cc3ccccc3)ccc2c1O)C(=O)O` [Compound 164, 3-[(7-Benzyl-1-cyano-4-hydroxy-isoquinoline-3-carbonyl)-amino]-2,2-dimethyl-propionic acid], in assay [1], the IC50 turned out to be 1.35 µM and the PHD2/PHD1 stood at 14. Moreover, the IC50 in assay [2] was 18.6 µM.
Regarding `N#Cc1nc(C(=O)NC(CC(=O)O)c2cccc(Cl)c2)c(O)c2ccc(Oc3ccccc3)cc12` (stereo not drawn) [Compound 165, 3-(3-Chloro-phenyl)-3-[(1-cyano-4-hydroxy-7-phenoxy-isoquinoline-3-carbonyl)-amino]-propionic acid], in assay [1], the IC50 was found to be 1.51 µM and the PHD2/PHD1 is 19. Moreover, the IC50 in assay [2] came out at 28.1 µM.
Take `N#Cc1nc(C(=O)NCC(C(=O)O)C2CC2)c(O)c2ccc(Oc3ccccc3)cc12` (stereo not drawn) [Compound 166, 3-[(1-Cyano-4-hydroxy-7-phenoxy-isoquinoline-3-carbonyl)-amino]-2-cyclopropyl-propionic acid]: in assay [1], the IC50 turned out to be 0.42 µM and the PHD2/PHD1 is 29. The IC50 in assay [2] was found to be 12.2 µM.
Regarding `O=C(NCC(C(=O)O)C1CC1)c1ncc2cc(Oc3ccccc3)ccc2c1O` (stereo not drawn) [Compound 167, 2-Cyclopropyl-3-[(4-hydroxy-7-phenoxy-isoquinoline-3-carbonyl)-amino]-propionic acid], the half-inhibitory concentration (IC50) in assay [1] was 9.57 µM; in assay [2] it was 100 µM. Also, the PHD2/PHD1 in assay [1] came to 10.
For `O=C(NCC(C(=O)O)c1ccccc1)c1ncc2cc(Oc3ccccc3)ccc2c1O` (stereo not drawn) [Compound 169, 3-[(4-Hydroxy-7-phenoxy-isoquinoline-3-carbonyl)-amino]-2-phenyl-propionic acid], in that order: 26.6 µM, 153 µM and 6.
Turning to `N#Cc1nc(C(=O)N[C@@H](CC(=O)O)c2ccccc2F)c(O)c2ccc(Oc3ccccc3)cc12` [Compound 170, 3-(S)-[(1-Cyano-4-hydroxy-7-phenoxy-isoquinoline-3-carbonyl)-amino]-3-(2-fluoro-phenyl)-propionic acid], in assay [1], the IC50 turned out to be 2.76 µM and the PHD2/PHD1 stood at 12. Besides, the IC50 in assay [2] came out at 32.2 µM.
For the compound `Cc1ccccc1[C@H](CC(=O)O)NC(=O)c1nc(C#N)c2cc(Oc3ccccc3)ccc2c1O` [Compound 171, 3-(S)-[(1-Cyano-4-hydroxy-7-phenoxy-isoquinoline-3-carbonyl)-amino]-3-o-tolyl-propionic acid], in assay [1], the IC50 is 5.26 µM and the PHD2/PHD1 is 9. In addition, the IC50 in assay [2] is 45.7 µM.
For `N#Cc1ccc([C@H](CC(=O)O)NC(=O)c2nc(C#N)c3cc(Oc4ccccc4)ccc3c2O)cc1` [Compound 172, 3-(S)-[(1-Cyano-4-hydroxy-7-phenoxy-isoquinoline-3-carbonyl)-amino]-3-(4-cyano-phenyl)-propionic acid], in that order: 2.83 µM, 10 and 27.6 µM.
For `N#Cc1nc(C(=O)NC(CC(=O)O)c2ccc(Cl)cc2)c(O)c2ccc(Oc3ccccc3)cc12` (stereo not drawn) [Compound 173, 3-(4-Chloro-phenyl)-3-[(1-cyano-4-hydroxy-7-phenoxy-isoquinoline-3-carbonyl)-amino]-propionic acid], the IC50 in assay [1] was 3.97 µM; in assay [2], 20.9 µM. In addition, the PHD2/PHD1 in assay [1] turned out to be 5.
As to `N#Cc1nc(C(=O)NC(CC(=O)O)c2cccnc2)c(O)c2ccc(Oc3ccccc3)cc12` (stereo not drawn) [Compound 174, 3-[(1-Cyano-4-hydroxy-7-phenoxy-isoquinoline-3-carbonyl)-amino]-3-pyridin-3-yl-propionic acid], the figures for the IC50 in assay [1] and in assay [2] were 6.75 µM and 39.4 µM, respectively. Further, the PHD2/PHD1 in assay [1] was found to be 6.
For `N#Cc1nc(C(=O)N[C@@H](CC(=O)O)c2cccnc2)c(O)c2ccc(Oc3ccccc3)cc12` [Compound 175, 3-(S)-[(1-Cyano-4-hydroxy-7-phenoxy-isoquinoline-3-carbonyl)-amino]-3-pyridin-3-yl-propionic acid], in assay [1], the IC50 was found to be 4.51 µM and the PHD2/PHD1 is 6. Further, the IC50 in assay [2] turned out to be 25.1 µM.
Take `N#Cc1nc(C(=O)N[C@H](CC(=O)O)c2cccnc2)c(O)c2ccc(Oc3ccccc3)cc12` [Compound 176, 3-(R)-[(1-Cyano-4-hydroxy-7-phenoxy-isoquinoline-3-carbonyl)-amino]-3-pyridin-3-yl-propionic acid]: in assay [1], the IC50 was found to be 4.08 µM and the PHD2/PHD1 is recorded as 6. Also, in assay [2], the IC50 turned out to be 24.6 µM.
For the compound `N#Cc1nc(C(=O)NCC(C(=O)O)C2CC2)c(O)c2ccc(Oc3ccccc3F)cc12` (stereo not drawn) [Compound 177, 3{-[1-Cyano-7-(2-fluoro-phenoxy)-4-hydroxy-isoquinoline-3-carbonyl]-amino}-2-cyclopropyl-propionic acid], in assay [1], the IC50 turned out to be 0.75 µM and the PHD2/PHD1 is 14. Further, in assay [2], the IC50 turned out to be 10.5 µM.
Regarding `N#Cc1nc(C(=O)NCC(C(=O)O)C2CC2)c(O)c2ccc(Oc3ccc(F)cc3)cc12` (stereo not drawn) [Compound 179, 3{-[1-Cyano-7-(4-fluoro-phenoxy)-4-hydroxy-isoquinoline-3-carbonyl]-amino}-2-cyclopropyl-propionic acid], in assay [1], the IC50 was determined as 0.95 µM and the PHD2/PHD1 was 9. In assay [2], the IC50 is 8.54 µM.
